Assay results reported in US20230212164A1, “ANNULATED 2-AMINO-3-CYANO THIOPHENES AND DERIVATIVES FOR THE TREATMENT OF CANCER” (BOEHRINGER INGELHEIM INTERNATIONAL GMBH, priority 2020, published 2023).

Columns and labels:
[1] = biological target: T1, protein-protein interaction between SOS1 and KRAS G12C (Homo sapiens, UniProt P01116, C118S/C51S/C80L/G12C); assay: KRAS::SOS1 AlphaScreen binding assay
T1 construct: His6 (N)

[2] = biological target: KRASG12-dependent Ba/F3 cells (Homo sapiens, UniProt P01116, G12C, cells depend on it); assay: Ba/F3 cell model proliferation assay (AlamarBlue, 72 h); assay type: cell-based; settings: Ba/F3 cells transduced with KRASG12C, read-out: IC50 Ba/F3 KRASG12C
Protocol: Ba/F3 Cell Model Generation and Proliferation Assay
Plasmids containing KRASG12 mutants were obtained from GeneScript. To generate KRASG12-dependent Ba/F3 models, Ba/F3 cells were transduced with retroviruses containing vectors that harbor KRASG12 isoforms. Platinum-E cells (Cell Biolabs) were used for retrovirus packaging. Retrovirus was added to Ba/F3 cells. To ensure infection, 4 μg/mL polybrene was added and cells were spinfected. […] Cells with an infection efficiency of 10% to 20% were further cultivated and puromycin selection with 1 μg/mL was initiated. As a control, parental Ba/F3 cells were used to show selection status. Selection was considered successful when parental Ba/F3 cells cultures died. To evaluate the transforming potential of KRASG12 mutations, the growth medium was no longer supplemented with IL-3. Ba/F3 cells harboring the empty vector were used as a control. Approximately ten days before conducting the experiments, puromycin was left out.
All treatments were performed in technical duplicates. The assay is run using a fully automated robotic system. Treated cells were incubated for 72 h at 37° C. with 5% CO2.
AlamarBlue™ (ThermoFisher), a viability stain, was added and fluorescence measured in the PerkinElmer Envision HTS Multilabel Reader.

SW837 cells = assay: SW 837 CTG proliferation assay (CRC); assay type: cell-based; settings: Homo sapiens
Protocol: SW837 cells (ATCC #CCL-235) were grown in cell culture flasks (175 cm^2) using L-15 10% FCS, 1% L-Glu, 1xNEAA and 1× Na-Pyrovat. Cultures were incubated at 37° C. and 0% CO2 in a humidified atmosphere, with medium change or subcultivation 2-3 times a week. Materials used for the assay were CulturPlate-384, White Opaque 384-well Microplate, Sterile and Tissue Culture Treated (Perkin Elmer #6007680), Leibovitz L15 Medium and FBS #SH30071.03 (HyClone).
(§1) The proliferation assays started (day1) with seeding cells in flat bottom 384 well microtiter plates in 90 μL L-15 10% FCS, 1% L-Glu, 1xNEAA and 1×Na-Pyrovat at a density of 500 cells/well. Any other luminescence compatible plate format is possible. On day 2, 10 μL dilutions of the test compounds covering a concentration range between app. 0,1 and 10.000 nM were added to the cells. Cells were incubated for 5 days in a humidified, CO2 controlled (no CO2) incubator at 37° C. On day 7 100 μL of Cell Titer Glow reagent (Cell titer Glo Luminescent Cat. No. G7571, Promega) were added to each well and incubated for additional 10 min at room temperature (with agitation). Luminescence was measured on a Wallac Victor using standard luminescence read out. IC50 values were calculated using standard Levenburg Marquard algorithms (GraphPad Prism).

MiaPaCa-2 cells = assay: MiaPaCa-2 CTG proliferation assay (pancreatic cancer); assay type: cell-based; settings: Homo sapiens, MIA PaCa-2, 120 h, 5 days, read-out: IC50 MiaPACA2
Protocol: as §1, with “μL DMEM medium supplemented with” for “μL L-15”, “10% FBS” for “10% FCS, 1% L-Glu, 1xNEAA and 1×Na-Pyrovat”, “humidified, incubator with 5%” for “humidified,”, “CO2” for “CO2 controlled (no CO2) incubator”, “100 μl” for “100 μL”

NCI-H358 cells = assay: NCI-H358 CTG proliferation assay (120 h) (NSCLC); assay type: cell-based; settings: Homo sapiens
Protocol: NCI-H358 cells (ATCC No. CRL-5807) were dispensed into white bottom opaque 96 well plates (Perkin Elmer cat no. 5680) at a density of 2000 cells per well in 100 μL RPMI-1640 ATCC-Formulation (Gibco #A10491)+10% FCS. Cells were incubated overnight at 37° C. in a humidified tissue culture incubator at 5% CO2. Compounds (10 mM stock in DMSO) were added at logarithmic dose series using the HP Digital Dispenser D300 (Tecan), normalizing for added DMSO. For the T0 time point measurement, untreated cells were analyzed at the time of compound addition. Plates were incubated for 120 hours, and cell viability was measured using CellTiter-Glo luminescent cell viability reagent (Promega product code G7570). Viability (stated as percent of control) is defined as relative luminescence units RLU of each well divided by the RLU of cells in DMSO controls. IC50 values were determined from viability measurements by non-linear regression using a four parameter model.

[3] = test system: pERK (Thr202/Tyr204) in NCI-H358_Cas9_SOS2 (SOS2 knocked); assay: ERK phosphorylation assay 2 (AlphaLISA SureFire Ultra p-ERK1/2); settings: read-out: IC50 H358 pERK, ERK phosphorylation assay 2 (values marked with *)
Protocol: ERK Phosphorylation Assay
Low IC50 values in this assay setting are indicative of high potency of the compounds according to the invention.
GFP positive cells were collected and further expanded. These GFP-positive cell pools were single-cell diluted and SOS2 knock-out clones were identified via Western-blot and genomic DNA sequencing analysis.
Materials Used for the Assay:
AlphaLISA SureFire Ultra p-ERK1/2 (Thr202/Tyr204) Assay Kit (ALSU-PERK-A500)
Cells are seeded at 40,000 cells per well in /60 μL of RPMI with 10% FBS, non-essential amino acids, pyruvate and glutamax in Greiner TC 384 plates. The cells are incubated for 1 h at room temperature and then incubated overnight in an incubator at 37° C. and 5% CO2 in a humidified atmosphere. 60 nL compound solution (10 mM DMSO stock solution) is then added using a Labcyte Echo 550 device. After a 1 h incubation in the aforementioned incubator the medium is removed after centrifugation and the cells lysed by addition of 20 μL of 1.6-fold lysis buffer from the AlphaLISA SureFire Ultra pERK1/2 (Thr202/Tyr204) Assay Kit with added protease inhibitors, 100 nM trametinib+100 nM staurosporine. After 20 minutes of incubation at room temperature with shaking, 6 μL of each lysate sample is transferred to a 384-well Proxiplate and analyzed for pERK (Thr202/Tyr204) with the AlphaLISA SureFire Ultra pERK1/2 (Thr202/Tyr204) Assay Kit. 3 μL Acceptor Mix and 3 μL Donor Mix are added under subdued light and incubated for 2 h at room temperature in the dark, before the signal is measured on a PerkinElmer Envision HTS Multilabel Reader. The raw data were imported into and analyzed with the Boehringer Ingelheim proprietary software MegaLab (curve fitting based on the program PRISM, GraphPad Inc.).

KRASG12-dependent Ba/F3 cells, sequence (P01116 whole entry G12C): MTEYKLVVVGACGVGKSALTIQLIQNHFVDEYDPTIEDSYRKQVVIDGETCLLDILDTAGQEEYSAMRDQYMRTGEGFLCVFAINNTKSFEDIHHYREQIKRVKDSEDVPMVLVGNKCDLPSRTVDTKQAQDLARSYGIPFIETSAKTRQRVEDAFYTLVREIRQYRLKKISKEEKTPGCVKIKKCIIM
T1 sequence (P01116 1-169 isoform P01116-2 G12C/C51S/C80L/C118S): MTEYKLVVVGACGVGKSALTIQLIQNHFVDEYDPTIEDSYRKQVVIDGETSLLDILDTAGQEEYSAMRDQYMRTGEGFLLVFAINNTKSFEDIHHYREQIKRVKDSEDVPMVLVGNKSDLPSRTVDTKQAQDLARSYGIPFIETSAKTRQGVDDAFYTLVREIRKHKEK

| Compound | IC50 ([1]; Table 36) | GI50 [2] | IC50 (SW837 cells) | IC50 (MiaPaCa-2 cells) | IC50 (NCI-H358 cells) | IC50 [3] | IC50 ([1]; Table 38) | IC50 ([1]; Table 37) |
| --- | --- | --- | --- | --- | --- | --- | --- | --- |
| C=CC(=O)N1[C@H](C)CC(Oc2cc(O[C@@H](C)[C@@H]3CCCN3C)nc(-c3noc([C@@]4(C)CCCc5sc(N)c(C#N)c54)n3)c2)C[C@H]1C (stereo partly shown) [Ia-86] | 2 nM | 7 nM | 2.08 nM | 13.8 nM | 4.67 nM | 3.9 nM |  |  |
| C=CC(=O)N1[C@H](C)CN(c2cc(-c3noc([C@@]4(C)CCCc5sc(N)c(C#N)c54)n3)nc(O[C@@H](C)[C@@H]3CCCN3C)n2)C[C@@H]1C [Ia-64] | 2.2 nM | 12 nM | 6.34 nM | 12.1 nM | 7.42 nM | 3.5 nM |  |  |
| C=CC(=O)N1CCN(c2cc(-c3noc([C@@]4(C)CCCc5sc(N)c(C#N)c54)n3)nc(O[C@@H](C)[C@@H]3CCCN3C)n2)C[C@@H]1C [Ia-61] | 1.6 nM | 2.3 nM | 0.63 nM | 4.23 nM | 0.67 nM | 1.3 nM |  |  |
| C=CC(=O)N1CCN(c2cc(O[C@@H](C)[C@@H]3CCCN3C)nc(-c3noc([C@@]4(C)CCCc5sc(N)c(C#N)c54)n3)n2)CC12CC2 [Ia-77] | 2 nM | 6.9 nM | 4.11 nM | 13.3 nM | 4.2 nM | 2.6 nM |  |  |
| C=CC(=O)N1CCN(c2nc(=O)n(-c3c(C)ccnc3C(C)C)c3nc(-c4c(O)cccc4F)c(F)cc23)[C@@H](C)C1 [sotorasib, reference compound] |  |  |  |  | 21 nM |  |  |  |
| C=CC(=O)N1CCN(c2cc(-c3noc([C@@]4(C)CCCc5sc(N)c(C#N)c54)n3)nc(O[C@@H](C)[C@@H]3CCCN3C)n2)CC1 [Ia-46] | 1.7 nM | 4.4 nM | < 1 nM | 3 nM | 0.95 nM | 2.1 nM |  |  |
| C=CC(=O)N1C[C@H](C)N(c2cc(-c3noc([C@@]4(C)CCCc5sc(N)c(C#N)c54)n3)nc(O[C@@H](C)[C@@H]3CCCN3C)n2)C[C@H]1C [Ia-133] | 12 nM | 77.7 nM | 71 nM | 673 nM | 41.4 nM | 28.9 nM |  |  |
| C=CC(=O)N1CCN(c2cc(-c3noc([C@@]4(C)CCCc5sc(N)c(C#N)c54)n3)nc(O[C@@H](C)[C@@H]3CCCN3C)n2)[C@@H](C)C1 [Ia-54] | 1.6 nM | 4.3 nM | 2.25 nM | 2.22 nM | 1.34 nM | 2.2 nM |  |  |
| C=CC(=O)N1CCC(Oc2cc(-c3noc([C@]4(C)CCCc5sc(N)c(C#N)c54)n3)nc(N3CCN(C)C[C@@H]3C)c2)CC1 [Ia-80] | 507 nM | 559 nM |  |  |  | 1150 nM |  |  |
| C=CC(=O)N1CCN(c2cc(O[C@@H](C)[C@@H]3CCCN3C)nc(-c3noc([C@@]4(C)CCCc5sc(N)c(C#N)c54)n3)n2)CC1 [Ia-136] | 1.4 nM | 2 nM |  |  |  | 0.9 nM |  |  |
| C=CC(=O)N1CCN(c2cc(-c3noc([C@@]4(C)CCCc5sc(N)c(C#N)c54)n3)nc(OC3CCCC34CCCN4C)n2)CC1 (stereo partly shown) [Ia-49] | 4 nM | 26 nM |  |  |  | 10.4 nM |  |  |
| C=CC(=O)N1[C@@H](C)CN(c2cc(-c3noc([C@@]4(C)CCCc5sc(N)c(C#N)c54)n3)nc(O[C@@H](C)[C@@H]3CCCN3C)n2)C[C@@H]1C [Ia-62] | 1.6 nM | 1.2 nM | 0.42 nM | 6.77 nM | 1.01 nM | 1.2 nM |  |  |
| C=CC(=O)N1CCN(c2cc(-c3noc([C@@]4(C)CCCc5sc(N)c(C#N)c54)n3)nc(O[C@@H](C)[C@@H]3CCCN3C3CCN(C)CC3)n2)CC1 [Ia-135] | 2 nM | 25.4 nM |  |  |  | 9.6 nM |  |  |
| CC#CC(=O)N1CCN(c2cc(O[C@@H](C)[C@@H]3CCCN3C)nc(-c3noc([C@@]4(C)CCCc5sc(N)c(C#N)c54)n3)n2)CC12CC2 [Ia-165] |  | 12.5 nM |  |  |  | 4 nM | 4 nM |  |
| C=CC(=O)N1CCN(c2nc(O[C@@H](C)[C@@H]3CCCN3C)nc(-c3noc([C@@]4(C)CCCc5sc(N)c(C#N)c54)n3)n2)CC1 [Ia-139] | 1.5 nM | 2.1 nM |  |  |  | 1.4 nM |  |  |
| C=CC(=O)N1CCN(c2cc(-c3noc(C4(C)CCc5sc(N)c(C#N)c54)n3)nc(O[C@@H](C)[C@@H]3CCCN3C)n2)CC1 (stereo partly shown) [Ia-134] | 3 nM | 15.4 nM |  |  |  | 5.6 nM |  |  |
| COC/C=C/C(=O)N1CCN(c2cc(-c3noc([C@@]4(C)CCCc5sc(N)c(C#N)c54)n3)nc(O[C@@H](C)[C@@H]3CCCN3C)n2)CC1 [Ia-157] |  | 1520 nM |  |  |  | 238 nM |  | 16 nM |
